Measured values: paper PMC6095690, “Coalescing beneficial host and deleterious antiparasitic actions as an antischistosomal strategy” (eLife, 2018)
Where two headings read alike, the source gives them in different places.

What was measured:
Sm.5HTRL [1] = molecular target: T1, Sm.5HTRL (Schistosoma mansoni, UniProt A0A173FEI8)
[2] = test system: parental HEK293 cell line expressing the GloSensor 22F cAMP sensor and lacking Sm.5HTRL; assay: counter-screen of agonist hits: basal cAMP luminescence in parental reporter line; format: cell-based
[3] = test system: adult S. mansoni parasites; assay: adult worm movement assay ex vivo; set-up: species or system Schistosoma mansoni; details: for EC50 / IC50: Schistosoma mansoni, ± 95% confidence interval; for EC50: read-out: EC50 for stimulation of adult schistosome movement; for IC50: read-out: IC50 for inhibition of 5-HT evoked movement, 5-HT 200 µM
Sm.5HTRL [4] = molecular target: T1, Sm.5HTRL; assay: cell-based; details: for fold induction at 10 µM: HEK293, read-out: Sm.5HTRL agonism (fold change luminescence)
[5] = test system: S. mansoni (mature infection in Swiss Webster mice); assay: hepatic shift assay in infected mice; details: intraperitoneal, sacrificed three hours later; dose not given
Sh.5HTR = Sh.5HTR (Schistosoma haematobium, UniProt A0A922S615); format: cell-based; details: receptor transiently transfected into stable HEK293 cAMP reporter line; read-out: EC50 of cAMP luminescence response
[6] = test system: adult S. mansoni male and female pairs; assay: egg laying assay of worm pairs cultured ex vivo; details: 100 µM, five days
Sj.5HTR = Sj.5HTR (Schistosoma japonicum, UniProt A0A346LTY2); assay: cell-based
immature S. mansoni = assay: movement of immature worms harvested 4 weeks post infection, ex vivo; set-up: species or system Schistosoma mansoni; details: male worms 4 weeks post infection
From the text: Figure 6. […] Figure 6—figure supplement 1. […] Scale = 50 µm. [drawing 7]

[7] = test system: S. mansoni (mature infection in Swiss Webster mice); assay: curative efficacy against mature infection in mice (survival, worm burden, egg counts, organ weights)
[8] = test system: immature S. mansoni (infection in mice); assay: curative efficacy against immature infection in mice (dosing weeks 3-4 post infection); details: dosing 3–4 weeks post infection, worm burden at 7 weeks; ERG 60 mg/kg, PZQ 50 mg/kg
liver signaling pathways = assay: Ingenuity Pathway Analysis of transcripts differentially expressed in drug treated livers relative to control infections; format: in vivo, mouse
[9] = agonist hit counter screen, cells lacking Sm.5HTRL
[10] = primary screen, compound 10 µM then 5-HT 1 µM, 384 well, single replicate

T1 sequence (A0A173FEI8 1-547): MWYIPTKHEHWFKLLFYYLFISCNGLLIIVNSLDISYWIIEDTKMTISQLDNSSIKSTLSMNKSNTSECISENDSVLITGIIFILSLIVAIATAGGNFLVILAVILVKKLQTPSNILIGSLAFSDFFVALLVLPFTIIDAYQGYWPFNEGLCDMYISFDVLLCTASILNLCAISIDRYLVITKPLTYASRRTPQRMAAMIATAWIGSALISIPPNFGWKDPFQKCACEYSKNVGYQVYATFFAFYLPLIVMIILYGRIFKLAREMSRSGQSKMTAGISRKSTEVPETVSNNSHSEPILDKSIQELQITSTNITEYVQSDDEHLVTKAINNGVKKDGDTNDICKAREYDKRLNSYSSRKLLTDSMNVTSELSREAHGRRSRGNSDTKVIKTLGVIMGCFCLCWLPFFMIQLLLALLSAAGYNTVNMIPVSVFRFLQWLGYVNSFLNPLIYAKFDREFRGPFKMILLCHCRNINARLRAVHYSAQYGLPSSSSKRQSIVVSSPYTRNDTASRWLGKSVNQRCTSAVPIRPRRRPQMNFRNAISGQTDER
Chain of Sj.5HTR (A0A346LTY2 entry or part of it): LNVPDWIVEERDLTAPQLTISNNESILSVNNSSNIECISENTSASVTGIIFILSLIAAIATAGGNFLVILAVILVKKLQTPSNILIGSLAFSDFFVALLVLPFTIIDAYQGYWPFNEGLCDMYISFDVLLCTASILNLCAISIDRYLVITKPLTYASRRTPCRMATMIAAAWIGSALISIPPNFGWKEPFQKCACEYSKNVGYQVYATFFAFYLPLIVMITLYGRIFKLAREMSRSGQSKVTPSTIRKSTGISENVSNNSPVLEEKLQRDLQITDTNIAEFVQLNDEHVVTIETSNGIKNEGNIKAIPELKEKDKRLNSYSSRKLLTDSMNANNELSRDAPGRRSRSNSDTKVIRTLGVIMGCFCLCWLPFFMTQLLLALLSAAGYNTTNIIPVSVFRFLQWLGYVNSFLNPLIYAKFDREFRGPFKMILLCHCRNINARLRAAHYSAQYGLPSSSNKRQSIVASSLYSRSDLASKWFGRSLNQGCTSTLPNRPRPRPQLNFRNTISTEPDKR

## C[C@@H](CO)NC(=O)[C@@H]1C=C2c3cccc4[nH]cc(c34)C[C@H]2N(C)C1 [ST057158]
Sm.5HTRL [1]
  (+) Sm.5HTRL fold change: 15.5169 fold change
[2]; [9]
  (-)Sm.5HTRL fold change: 1.1 fold change

## C=C[C@]1(C)C=C2CC[C@@H]3[C@](C)(CCC[C@@]3(C)C(=O)O)[C@H]2CC1 [compound 6435]
Sm.5HTRL [1]; agonist hit validation
  (+) Sm.5HTRL fold change: 200.129 fold change
[2]; [9]
  (-)Sm.5HTRL fold change: 0.9901 fold change

## CCN(CC)C(=O)[C@@H]1C=C2c3cccc4[nH]cc(c34)C[C@H]2N(C)C1 [LSD, reference compound]
Sm.5HTRL [1]
  type of activity at schistosome 5-HTRs: partial agonist
[3]; ex vivo
  EC50: 1400 ± 500 nM

## Nc1ncnc2c1ncn2[C@@H]1O[C@H](CO)[C@@H](O)[C@H]1O [ST009496]
Sm.5HTRL [1]; agonist hit validation
  (+) Sm.5HTRL fold change: 24.237 fold change
[2]; [9]
  (-)Sm.5HTRL fold change: 3.9 fold change

## COc1cc(C(=O)NCCOc2ccccc2C)cc(OC)c1OC [ST005872]
Sm.5HTRL [1]; agonist hit validation
  (+) Sm.5HTRL fold change: 10.4008 fold change
[2]; [9]
  (-)Sm.5HTRL fold change: 0.7305 fold change

## CNC[C@H](O)c1ccc(O)c(O)c1 [ST069368]
Sm.5HTRL [1]; agonist hit validation
  (+) Sm.5HTRL fold change: 60.6229 fold change
[2]; [9]
  (-)Sm.5HTRL fold change: 94.1 fold change

## Nc1ncnc2c1ncn2[C@@H]1O[C@H](COP(=O)(O)OP(=O)(O)O)[C@@H](O)[C@H]1O [ST057097]
Sm.5HTRL [1]; agonist hit validation
  (+) Sm.5HTRL fold change: 11.9433 fold change
[2]; [9]
  (-)Sm.5HTRL fold change: 1.0 fold change

## CNCC(O)c1ccc(O)cc1 (centres unmarked) [ST095769]
Sm.5HTRL [1]; agonist hit validation
  (+) Sm.5HTRL fold change: 11.737 fold change
[2]; [9]
  (-)Sm.5HTRL fold change: 2.535 fold change

## COc1cc(C)c2c(c1C=O)Oc1c(c(C)c(O)c3c1C(O)OC3=O)OC2=O (centres unmarked) [compound 87511]
Sm.5HTRL [4]
  fold induction at 10 µM: 0.635
Sm.5HTRL [1]; [10]
  Sm.5HTRL antagonism (% of control 5-HT response): 0.8125 % of control 5-HT response

## CC(C)C[C@H]1C(=O)N2CCC[C@H]2[C@]2(O)O[C@](NC(=O)[C@@H]3C=C4c5cccc6[nH]c(Br)c(c56)C[C@H]4N(C)C3)(C(C)C)C(=O)N12 [bromocriptine, Bromocriptine]
Sm.5HTRL [4]
  IC50: 1600 ± 400 nM
Sm.5HTRL [1]
  type of activity at schistosome 5-HTRs: antagonists
[3]; ex vivo
  IC50: 331 ± 271 nM
[3]; preincubation 1 µM, Figure 4B
  5-HT (200 µM) stimulation of worm movement after preincubation with antagonist: 5-HT stimulation was not observed
[5]
  percentage of worms in the liver: 2.0 ± 2.8%

## CN1C[C@H](C(=O)N[C@]2(C)O[C@@]3(O)[C@@H]4CCCN4C(=O)[C@H](Cc4ccccc4)N3C2=O)C[C@@H]2c3cccc4[nH]cc(c34)C[C@H]21.CS(=O)(=O)O [ST056346]
Sm.5HTRL [1]
  (+) Sm.5HTRL fold change: 94.3413 fold change
[2]; [9]
  (-)Sm.5HTRL fold change: 1.4 fold change

## COc1ccc(C2CC(=O)c3c(O)cc(OC4OC(CO)C(O)C(O)C4OC4OC(C)C(O)C(O)C4O)cc3O2)cc1O (centres unmarked) [compound 31048]
Sm.5HTRL [4]
  fold induction at 10 µM: 1.32
Sm.5HTRL [1]; [10]
  Sm.5HTRL antagonism (% of control 5-HT response): 1.138 % of control 5-HT response

## Nc1ncnc2c1ncn2C1OC(CO)C(O)C1O (centres unmarked) [compound 7652]
Sm.5HTRL [1]; agonist hit validation
  (+) Sm.5HTRL fold change: 49.711 fold change
[2]; [9]
  (-)Sm.5HTRL fold change: 7.802 fold change

## CCN1C[C@]2(COC)[C@H](O)C[C@H](OC)[C@]34C1[C@H]([C@H](OC)[C@H]23)[C@]1(OC(C)=O)[C@H]2[C@@H](OC(=O)c3ccccc3)[C@](O)(C[C@H]24)[C@@H](OC)[C@@H]1O [compound 56464]
Sm.5HTRL [1]
  Sm.5HTRL agonism (fold change luminescence): 1.997 fold change luminescence
  Sm.5HTRL antagonism (% of control 5-HT response): 1.042 % of control 5-HT response

## Cc1ccc2[nH]c(CCN)cc2c1.Cl [ST070930]
Sm.5HTRL [1]; agonist hit validation
  (+) Sm.5HTRL fold change: 17.0489 fold change
[2]; [9]
  (-)Sm.5HTRL fold change: 1.1 fold change

## CNC[C@@H](O)c1ccc(O)c(O)c1 [compound 62786]
Sm.5HTRL [1]; agonist hit validation
  (+) Sm.5HTRL fold change: 230.23 fold change
[2]; [9]
  (-)Sm.5HTRL fold change: 88.8519 fold change

## NCCc1c[nH]c2ccc(O)cc12 [5-HT, serotonin]
Sm.5HTRL [4]
  EC50: 76 ± 1 nM
Sm.5HTRL [4]; HEK293, read-out: elevation in luminescence values (fold increase)
  fold induction at 1 µM: 70 to 110
[3]; ex vivo
  EC50: 51600 ± 3000 nM
[3]; ex vivo, 5-HT at 200 µM
  effect on adult worm movement: increased worm movement
Sh.5HTR
  EC50: 3.6 ± 0.3 nM
[6]
  reduction of egg laying ex vivo: 82.4 ± 2.2 % reduction
Sj.5HTR
  EC50: 3 ± 0.3 nM
Immature S. mansoni
  effect on movement of juvenile worms: stimulated movement of juvenile worms

## O=C(C1CCCCC1)N1CC(=O)N2CCc3ccccc3C2C1 (centres unmarked) [PZQ, praziquantel]
[7]; PZQ 50 mg/kg for one week from 42 days p.i.
  lethality through 15 weeks: no observed lethality
[7]; ergotamine 60 mg/kg twice daily or PZQ 50 mg/kg, 42–49 days p.i.
  reduction in intestinal egg burden: 99.9 ± 0.1%
[7]; one week treatment starting at 42 days p.i.
  effect on hepatosplenomegaly: did not prevent spleen and liver enlargement
[8]
  effect on immature infection: lack of effect
Liver signaling pathways
  effect on gene products associated with HSC activation: little to no effect

## CCN(CC)C(=O)[C@@H]1C=C2c3cccc4[nH]c(Br)c(c34)C[C@H]2N(C)C1 [BOL-148, 2-Bromo-LSD]
Sm.5HTRL [4]
  IC50: 100 ± 20 nM
Sm.5HTRL [1]
  type of activity at schistosome 5-HTRs: antagonists
[3]; ex vivo
  IC50: 28.8 ± 23.1 nM
[3]; inhibition of 5-HT evoked movement
  potency relative to bromocriptine: ~ 10 fold
[5]
  percentage of worms in the liver: 5.2 ± 2.3%

## C=C[C@@]1(C)CC(=O)[C@@]2(O)[C@](C)(O1)[C@@H](OC(C)=O)[C@@H](O)C1C(C)(C)CC[C@H](O)[C@@]12C (some centres unmarked) [ST095786]
Sm.5HTRL [1]; agonist hit validation
  (+) Sm.5HTRL fold change: 95.4625 fold change
[2]; [9]
  (-)Sm.5HTRL fold change: 121.8 fold change

## COC(=O)C1=COC(C)C2CN3CCc4c([nH]c5cc(OC)c(OC)cc45)C3CC12.O=C(O)CC(O)(CC(=O)O)C(=O)O (centres unmarked) [compound 72715]
Sm.5HTRL [1]; agonist hit validation
  (+) Sm.5HTRL fold change: 54.6116 fold change
[2]; [9]
  (-)Sm.5HTRL fold change: 0.9445 fold change

## Br.Oc1ccc(CC2NCCc3cc(O)c(O)cc32)cc1O (centres unmarked) [ST056944]
Sm.5HTRL [1]; hek293 cells
  (+) Sm.5HTRL fold change: 28.3016 fold change
[2]
  (-)Sm.5HTRL fold change: 56.3 fold change

## CC1=CC(=O)c2c(O)cccc2C1=O [ST069355]
Sm.5HTRL [1]
  (+) Sm.5HTR 5-HT response (% of DMSO): 0.03935 % of DMSO

## CC(C)C[C@H]1C(=O)N2CCC[C@H]2[C@]2(O)O[C@](NC(=O)[C@@H]3C=C4c5cccc6[nH]cc(c56)C[C@H]4N(C)C3)(C(C)C)C(=O)N12 [α-ergocryptine, reference compound]
Sm.5HTRL [1]
  type of activity at schistosome 5-HTRs: inactive

## CN1C[C@H](C(=O)N[C@]2(C)O[C@@]3(O)[C@@H]4CCCN4C(=O)[C@H](Cc4ccccc4)N3C2=O)C[C@@H]2c3cccc4[nH]cc(c34)C[C@H]21 [dihydroergotamine, Dihydroergotamine, reference compound]
Sm.5HTRL [1]
  type of activity at schistosome 5-HTRs: full agonists

## Cl.NCCc1c[nH]c2ccc(Br)cc12 [ST093597]
Sm.5HTRL [1]; hek293 cells
  (+) Sm.5HTRL fold change: 15.2823 fold change
[2]
  (-)Sm.5HTRL fold change: 1.1795 fold change

## O=c1ccc2nc3ccc(O)cc3oc-2c1 [compound 12097]
Sm.5HTRL [4]
  fold induction at 10 µM: 0.635
Sm.5HTRL [1]; [10]
  Sm.5HTRL antagonism (% of control 5-HT response): 0.7238 % of control 5-HT response

## COc1cc2c(c(OC)c1OC)-c1ccc(OC)c(=O)cc1[C@@H](NC(C)=O)CC2 [compound 757]
Sm.5HTRL [1]
  Sm.5HTRL agonism (fold change luminescence): 1.502 fold change luminescence
  Sm.5HTRL antagonism (% of control 5-HT response): 1.228 % of control 5-HT response

## NCCc1c[nH]c2cccc(OC(=O)c3ccc(C(=O)O)cc3)c12 [ST070282]
Sm.5HTRL [1]; hek293 cells
  (+) Sm.5HTRL fold change: 12.6864 fold change
[2]; [9]
  (-)Sm.5HTRL fold change: 1.366 fold change

## CNCCc1c[nH]c2ccc(O)cc12.O=C(O)C(=O)O [ST055634]
Sm.5HTRL [1]; hek293 cells
  (+) Sm.5HTRL fold change: 165.214 fold change
[2]; [9]
  (-)Sm.5HTRL fold change: 1.3 fold change

## CC(C)NCC(O)c1ccc(O)c(O)c1 (centres unmarked) [ST077771]
Sm.5HTRL [1]; agonist hit validation
  (+) Sm.5HTRL fold change: 12.8429 fold change
[2]; [9]
  (-)Sm.5HTRL fold change: 15.0437 fold change

## Nc1nc(Cl)nc2c1ncn2C1OC(CO)C(O)C1O (centres unmarked) [ST088476]
Sm.5HTRL [1]; agonist hit validation
  (+) Sm.5HTRL fold change: 23.2211 fold change
[2]; [9]
  (-)Sm.5HTRL fold change: 3.8 fold change

## CCN(CC)C(=O)N[C@H]1C[C@@H]2c3cccc4[nH]cc(c34)C[C@H]2N(C)C1 [terguride, Terguride, reference compound]
Sm.5HTRL [4]
  IC50: 400 ± 50 nM
Sm.5HTRL [1]
  type of activity at schistosome 5-HTRs: antagonists

## CN1CC(C(=O)NC2(C)OC3(O)C4CCCN4C(=O)C(Cc4ccccc4)N3C2=O)C=C2c3cccc4[nH]cc(c34)CC21.O=C(O)C(O)C(O)C(=O)O (centres unmarked) [ST072185]
Sm.5HTRL [1]
  (+) Sm.5HTRL fold change: 29.8904 fold change
[2]
  (-)Sm.5HTRL fold change: 1.0 fold change
